# Laboratory results: PubChem BioAssay (NCI)
#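 Following 48 hours of exposure in 96-well plates, responses at five concentrations were used to interpolate endpoints linearly. GI50: concentration for 50% inhibition of growth. TGI denotes the concentration required for complete inhibition of growth.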
# Columns and labels:
# Test in all cases: NCI-60 cell line screen, 48 h
# A498 renal = test system: A498 renal
# A549 NSCLC = test system: A549 NSCLC
# ACHN renal = test system: ACHN renal
# BT-549 breast = test system: BT-549 breast
# CAKI-1 renal = test system: CAKI-1 renal
# CCRF-CEM leukemia = test system: CCRF-CEM leukemia
# COLO 205 colon = test system: COLO 205 colon
# DU-145 prostate = test system: DU-145 prostate
# EKVX NSCLC = test system: EKVX NSCLC
# HCC-2998 colon = test system: HCC-2998 colon
# HCT-116 colon = test system: HCT-116 colon
# HCT-15 colon = test system: HCT-15 colon
# HL-60(TB) leukemia = test system: HL-60(TB) leukemia
# HOP-62 NSCLC = test system: HOP-62 NSCLC
# HOP-92 NSCLC = test system: HOP-92 NSCLC
# HS 578T breast = test system: HS 578T breast
# HT29 colon = test system: HT29 colon
# IGROV1 ovarian = test system: IGROV1 ovarian
# K-562 leukemia = test system: K-562 leukemia
# KM12 colon = test system: KM12 colon
# LOX IMVI melanoma = test system: LOX IMVI melanoma
# M14 melanoma = test system: M14 melanoma
# MALME-3M melanoma = test system: MALME-3M melanoma
# MCF7 breast = test system: MCF7 breast
# MDA-MB-231 breast = test system: MDA-MB-231 breast
# MDA-MB-435 = test system: MDA-MB-435
# MOLT-4 leukemia = test system: MOLT-4 leukemia
# NCI-H226 lung = test system: NCI-H226 lung
# NCI-H23 lung = test system: NCI-H23 lung
# NCI-H460 lung = test system: NCI-H460 lung
# NCI-H522 lung = test system: NCI-H522 lung
# NCI/ADR-RES ovarian = test system: NCI/ADR-RES ovarian
# OVCAR-3 ovarian = test system: OVCAR-3 ovarian
# OVCAR-4 ovarian = test system: OVCAR-4 ovarian
# OVCAR-8 ovarian = test system: OVCAR-8 ovarian
# PC-3 prostate = test system: PC-3 prostate
# RPMI-8226 leukemia = test system: RPMI-8226 leukemia
# RXF 393 renal = test system: RXF 393 renal
# SF-268 CNS = test system: SF-268 CNS
# SF-295 CNS = test system: SF-295 CNS
# SF-539 CNS = test system: SF-539 CNS
# SK-MEL-2 melanoma = test system: SK-MEL-2 melanoma
# SK-MEL-28 melanoma = test system: SK-MEL-28 melanoma
# SK-MEL-5 melanoma = test system: SK-MEL-5 melanoma
# SK-OV-3 ovarian = test system: SK-OV-3 ovarian
# SN12C renal = test system: SN12C renal
# SNB-19 CNS = test system: SNB-19 CNS
# SNB-75 CNS = test system: SNB-75 CNS
# SR leukemia = test system: SR leukemia
# SW-620 colon = test system: SW-620 colon
# T-47D breast = test system: T-47D breast
# TK-10 renal = test system: TK-10 renal
# U251 CNS = test system: U251 CNS
# UACC-257 melanoma = test system: UACC-257 melanoma
# UACC-62 melanoma = test system: UACC-62 melanoma
# UO-31 renal = test system: UO-31 renal
smiles,measurement,setting,value
O=C(c1ccccc1)c1nn(-c2ccc(Cl)cc2)c2nc3nc(-c4ccccc4)cc(=O)n3nc12,GI50,A498 renal,58.8 µM
same,TGI,A498 renal,> 100 µM
same,GI50,A549 NSCLC,66.3 µM
same,TGI,A549 NSCLC,> 100 µM
same,GI50,ACHN renal,37.4 µM
same,TGI,ACHN renal,> 100 µM
same,GI50,BT-549 breast,26.2 µM
same,TGI,BT-549 breast,62.8 µM
same,GI50,CAKI-1 renal,> 100 µM
same,TGI,CAKI-1 renal,> 100 µM
same,GI50,CCRF-CEM leukemia,3.58 µM
same,TGI,CCRF-CEM leukemia,> 100 µM
same,GI50,COLO 205 colon,47.2 µM
same,TGI,COLO 205 colon,> 100 µM
same,GI50,DU-145 prostate,30.7 µM
same,TGI,DU-145 prostate,> 100 µM
same,GI50,EKVX NSCLC,30.3 µM
same,TGI,EKVX NSCLC,> 100 µM
same,GI50,HCC-2998 colon,29.7 µM
same,TGI,HCC-2998 colon,66.5 µM
same,GI50,HCT-116 colon,19.9 µM
same,TGI,HCT-116 colon,52.2 µM
same,GI50,HCT-15 colon,38.2 µM
same,TGI,HCT-15 colon,> 100 µM
same,GI50,HL-60(TB) leukemia,3.48 µM
same,TGI,HL-60(TB) leukemia,14.8 µM
same,GI50,HOP-62 NSCLC,32.3 µM
same,TGI,HOP-62 NSCLC,> 100 µM
same,GI50,HOP-92 NSCLC,22.1 µM
same,TGI,HOP-92 NSCLC,74.7 µM
same,GI50,HS 578T breast,28.9 µM
same,TGI,HS 578T breast,> 100 µM
same,GI50,HT29 colon,33.1 µM
same,TGI,HT29 colon,> 100 µM
same,GI50,IGROV1 ovarian,18.3 µM
same,TGI,IGROV1 ovarian,> 100 µM
same,GI50,K-562 leukemia,50.1 µM
same,TGI,K-562 leukemia,> 100 µM
same,GI50,KM12 colon,31.9 µM
same,TGI,KM12 colon,> 100 µM
same,GI50,LOX IMVI melanoma,28.1 µM
same,TGI,LOX IMVI melanoma,> 100 µM
same,GI50,M14 melanoma,31.6 µM
same,TGI,M14 melanoma,> 100 µM
same,GI50,MALME-3M melanoma,3.08 µM
same,TGI,MALME-3M melanoma,65.1 µM
same,GI50,MCF7 breast,40.9 µM
same,TGI,MCF7 breast,> 100 µM
same,GI50,MDA-MB-231 breast,26 µM
same,TGI,MDA-MB-231 breast,> 100 µM
same,GI50,MDA-MB-435,6.65 µM
same,TGI,MDA-MB-435,> 100 µM
same,GI50,MOLT-4 leukemia,37.9 µM
same,TGI,MOLT-4 leukemia,> 100 µM
same,GI50,NCI-H226 lung,> 100 µM
same,TGI,NCI-H226 lung,> 100 µM
same,GI50,NCI-H23 lung,65.6 µM
same,TGI,NCI-H23 lung,> 100 µM
same,GI50,NCI-H460 lung,39.1 µM
same,TGI,NCI-H460 lung,> 100 µM
same,GI50,NCI-H522 lung,31.2 µM
same,TGI,NCI-H522 lung,> 100 µM
same,GI50,NCI/ADR-RES ovarian,35.5 µM
same,TGI,NCI/ADR-RES ovarian,> 100 µM
same,GI50,OVCAR-3 ovarian,24.5 µM
same,TGI,OVCAR-3 ovarian,77.8 µM
same,GI50,OVCAR-4 ovarian,39.9 µM
same,TGI,OVCAR-4 ovarian,> 100 µM
same,GI50,OVCAR-8 ovarian,48.3 µM
same,TGI,OVCAR-8 ovarian,> 100 µM
same,GI50,PC-3 prostate,39.3 µM
same,TGI,PC-3 prostate,> 100 µM
same,GI50,RPMI-8226 leukemia,28.8 µM
same,TGI,RPMI-8226 leukemia,> 100 µM
same,GI50,RXF 393 renal,68.9 µM
same,TGI,RXF 393 renal,> 100 µM
same,GI50,SF-268 CNS,42.2 µM
same,TGI,SF-268 CNS,> 100 µM
same,GI50,SF-295 CNS,23.5 µM
same,TGI,SF-295 CNS,63.1 µM
same,GI50,SF-539 CNS,22.4 µM
same,TGI,SF-539 CNS,45.4 µM
same,GI50,SK-MEL-2 melanoma,26.3 µM
same,TGI,SK-MEL-2 melanoma,70.4 µM
same,GI50,SK-MEL-28 melanoma,53.7 µM
same,TGI,SK-MEL-28 melanoma,> 100 µM
same,GI50,SK-MEL-5 melanoma,20.4 µM
same,TGI,SK-MEL-5 melanoma,51.9 µM
same,GI50,SK-OV-3 ovarian,> 100 µM
same,TGI,SK-OV-3 ovarian,> 100 µM
same,GI50,SN12C renal,24 µM
same,TGI,SN12C renal,59.8 µM
same,GI50,SNB-19 CNS,39.9 µM
same,TGI,SNB-19 CNS,> 100 µM
same,GI50,SNB-75 CNS,28.8 µM
same,TGI,SNB-75 CNS,97.9 µM
same,GI50,SR leukemia,22.9 µM
same,TGI,SR leukemia,57.6 µM
same,GI50,SW-620 colon,49.5 µM
same,TGI,SW-620 colon,> 100 µM
same,GI50,T-47D breast,65.9 µM
same,TGI,T-47D breast,> 100 µM
same,GI50,TK-10 renal,31.8 µM
same,TGI,TK-10 renal,85.6 µM
same,GI50,U251 CNS,31.5 µM
same,TGI,U251 CNS,> 100 µM
same,GI50,UACC-257 melanoma,70.7 µM
same,TGI,UACC-257 melanoma,> 100 µM
same,GI50,UACC-62 melanoma,19.8 µM
same,TGI,UACC-62 melanoma,41.9 µM
same,GI50,UO-31 renal,25.7 µM
same,TGI,UO-31 renal,> 100 µM
